Patent US4146610A, “Antibiotics MM13902” (Beecham Group Limited, priority 1974, dated 1979)
Structures can show the parent of a compound that is named as a salt.

Key:
[1] = system: monoamine oxidase; experiment: Enzyme inhibition (selectivity); format: biochemical; details: at concentrations in excess of those required to inhibit the β-lactamase of E. coli
[2] = system: dopa decarboxylase; experiment: Enzyme inhibition (selectivity); format: biochemical; details: at concentrations in excess of those required to inhibit the β-lactamase of E. coli
[3] = system: β-lactamases produced by Escherichia coli, Klebsiella aerogenes and Staphylococcus aureus; experiment: Inhibition of β-lactamases of various species; format: biochemical
[4] = system: urease; experiment: Enzyme inhibition (selectivity); format: biochemical; details: at concentrations in excess of those required to inhibit the β-lactamase of E. coli
[5] = system: chymotrypsin; experiment: Enzyme inhibition (selectivity); format: biochemical; details: at concentrations in excess of those required to inhibit the β-lactamase of E. coli
[6] = system: tyrpsin; experiment: Enzyme inhibition (selectivity); format: biochemical; details: at concentrations in excess of those required to inhibit the β-lactamase of E. coli
[7] = system: carbonic anhydrase; experiment: Enzyme inhibition (selectivity); format: biochemical; details: at concentrations in excess of those required to inhibit the β-lactamase of E. coli
[8] = system: Klebsiella aerogenes; experiment: Antibiotic activity in arbitrary units; format: cell-based
Experimental: The material produced above was arbitrarily assigned an activity of 340 l/ml. Assays were determined as described in Description 3.

[9] = Stability; format: physicochemical; details: unsalted acid form

## CC(=O)N/C=C/[S+]([O-])C1=C(C(=O)O)N2C(=O)C(C(C)OS(=O)(=O)O)C2C1 (stereo not shown) [MM 4550A]
[1]
  enzyme inhibition: does not inhibit
[2]
  enzyme inhibition: does not inhibit
[3]
  enzyme inhibitory activity against β-lactamases: possesses enzyme inhibitory activity
[4]
  enzyme inhibition: does not inhibit
[5]
  enzyme inhibition: does not inhibit
[6]
  enzyme inhibition: does not inhibit
[7]
  enzyme inhibition: does not inhibit

## CC(=O)N/C=C/SC1=C(C(=O)O)N2C(=O)C(C(C)OS(=O)(=O)O)C2C1 (stereo not shown) [MM 13902]
[8]; partially purified salt, after XAD 4
  activity: 37,000 units/mg
[9]
  stability: tends to be unstable

## CC(=O)N/C=C/SC1=C(C(=O)O)N2C(=O)C(C(C)OS(=O)(=O)O)C2C1 (stereo not shown) [di-sodium salt of MM 13902]
[8]; yellowish powder after cellulose chromatography
  activity: 73,000 units/mg
